# Data: publication PMC11347632 (Scientific Reports, 2024)
# Biological target: RPA70 (replication protein A) (Homo sapiens, UniProt P27694)
# Test: reconstituted RPA-dependent ATR kinase assay with western blot
# Format: biochemical
# Sequence of RPA70 (replication protein A) (P15927 whole entry): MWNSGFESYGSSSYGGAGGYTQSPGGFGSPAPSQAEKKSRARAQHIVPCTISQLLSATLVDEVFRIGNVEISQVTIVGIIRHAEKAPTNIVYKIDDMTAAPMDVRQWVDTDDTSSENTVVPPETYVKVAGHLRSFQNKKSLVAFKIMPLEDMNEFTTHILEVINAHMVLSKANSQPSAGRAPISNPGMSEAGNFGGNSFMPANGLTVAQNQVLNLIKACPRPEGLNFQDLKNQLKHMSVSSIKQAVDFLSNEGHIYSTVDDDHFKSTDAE
# Sequence of RPA70 (replication protein A) (P35244 2-121, further chain): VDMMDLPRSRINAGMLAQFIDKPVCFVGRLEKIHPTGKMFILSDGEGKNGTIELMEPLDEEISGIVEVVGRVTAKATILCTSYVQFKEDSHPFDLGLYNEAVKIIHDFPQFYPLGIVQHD
# Sequence of RPA70 (replication protein A) (P27694 whole entry): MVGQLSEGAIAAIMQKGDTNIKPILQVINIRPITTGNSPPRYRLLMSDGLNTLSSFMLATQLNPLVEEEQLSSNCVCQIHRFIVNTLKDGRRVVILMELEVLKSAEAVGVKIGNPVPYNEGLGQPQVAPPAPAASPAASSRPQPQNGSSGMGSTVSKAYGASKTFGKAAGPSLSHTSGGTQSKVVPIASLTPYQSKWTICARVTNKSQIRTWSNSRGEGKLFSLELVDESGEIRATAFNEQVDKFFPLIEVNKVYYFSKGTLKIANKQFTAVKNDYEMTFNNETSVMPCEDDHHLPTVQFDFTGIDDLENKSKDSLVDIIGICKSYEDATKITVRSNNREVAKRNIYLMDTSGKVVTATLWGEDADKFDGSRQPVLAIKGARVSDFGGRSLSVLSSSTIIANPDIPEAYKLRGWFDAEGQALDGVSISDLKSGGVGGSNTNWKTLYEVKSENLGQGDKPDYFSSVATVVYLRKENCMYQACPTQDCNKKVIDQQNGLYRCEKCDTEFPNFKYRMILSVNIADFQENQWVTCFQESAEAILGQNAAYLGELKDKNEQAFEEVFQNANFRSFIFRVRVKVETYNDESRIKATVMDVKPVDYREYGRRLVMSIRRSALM
structure (smiles),measurement,value
"O=C1C=Cc2ccccc2/C1=C/Nc1ccccc1O [HAMNO, (1Z)-1-[(2-hydroxyanilino)methylidene]naphthalen-2-one]",reconstituted RPA-dependent ATR kinase assay with western blot,we titrated increasing amounts of HAMNO and PAME into the fully activated ATR reaction
